Measurements taken from patent EP0897720A1, “Droloxifene for prevention of breast cancer” (Pfizer Products Inc., priority 1997, dated 1999).

What was measured:
[1] = tested on: puberal, female sprague-Dawley rats; assay: Anti-uterotrophic effect (modified Dorfman Test); assay type: in vivo; settings: 3 mg./kg./day by stomach tube, six times weekly over 21 days, 0.25% aqueous agar suspension
Method: The anti-uterotrophic effect was determined according to a modified "Dorfman Test" [R. I. Dorfman, Methods in Hormone Research II, p. […]

[2] = tested on: epithelial cells of the uterus; settings: stated as a known side-effect of earlier anti-estrogens; cited from earlier work
[3] = tested on: 7,12-dimethylbenz(a)anthraceneinduced mammary tumor; assay: Inhibitory effect on the mammary tumor (DMBA-induced tumor model); assay type: in vivo, female Sprague-Dawley rat (Hanover breed); settings: 3 mg./kg./day by stomach tube, six times weekly over 28 days; control animals taken as 100%
Method: Twice weekly and on the 28th day of testing the number of animals was determined and the tumor surface (mm^2/animal) of the therapy animals and control animals was measured. At the end of testing, the percentage increase of the average tumor surface of the treated animals was determined in comparison to the control animals, the surface of the latter being taken as 100%.

SMILES | Uterine Weight compared to Controlled Animals [1] | abnormal growth of uterine epithelial cells [2] | Relative Increase of the Average Tumor Surface [3]
CC/C(=C(\c1ccccc1)c1ccc(OCCN(C)C)cc1)c1ccccc1 [Tamoxifen, reference compound] | -40% | causes abnormal growth of uterine epithelial cells | –
CC/C(=C(/c1ccc(OCCNC)cc1)c1cccc(O)c1)c1ccccc1 [Compound 3] | -53% | – | –
CC/C(=C(/c1ccc(OCCN(CC)CC)cc1)c1cccc(O)c1)c1ccccc1 [Compound 2] | -39% | – | –
CC/C(=C(/c1ccc(OCCN(C)C)cc1)c1cccc(O)c1)c1ccccc1 [Compound 1, 1-[4'-(2-dimethylaminoethoxy)phenyl]-1-(3'-hydroxyphenyl)-2-phenylbut-1-ene] | -42% | – | 23%
